# Measured values from PubChem BioAssay (NCI).
#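 The compound was tested at five concentrations on cells cultured in 96-well plates, with a 48-hour exposure period. TGI is the concentration that stops growth completely.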
# Columns and labels:
# Test in all cases: DTP human tumour cell line panel, 48 h
# T-47D breast = system: T-47D breast
# ACHN renal = system: ACHN renal
# OVCAR-4 ovarian = system: OVCAR-4 ovarian
# U251 CNS = system: U251 CNS
# OVCAR-8 ovarian = system: OVCAR-8 ovarian
# LOX IMVI melanoma = system: LOX IMVI melanoma
# OVCAR-3 ovarian = system: OVCAR-3 ovarian
# MDA-N = system: MDA-N
# IGROV1 ovarian = system: IGROV1 ovarian
# HCC-2998 colon = system: HCC-2998 colon
# HT29 colon = system: HT29 colon
# HCT-116 colon = system: HCT-116 colon
# SF-268 CNS = system: SF-268 CNS
SMILES,TGI (T-47D breast) [µM],TGI (ACHN renal) [µM],TGI (OVCAR-4 ovarian) [µM],TGI (U251 CNS) [µM],TGI (OVCAR-8 ovarian) [µM],TGI (LOX IMVI melanoma) [µM],TGI (OVCAR-3 ovarian) [µM],TGI (MDA-N) [µM],TGI (IGROV1 ovarian) [µM],TGI (HCC-2998 colon) [µM],TGI (HT29 colon) [µM],TGI (HCT-116 colon) [µM],TGI (SF-268 CNS) [µM]
Cc1cc2c(cc1Cl)SC(NNC(=O)c1ccncc1)=NS2(=O)=O,> 10,> 10,> 10,> 10,> 10,> 10,> 10,> 10,> 10,> 10,> 10,> 10,> 10
Cc1nn(-c2ccccc2)c2nc3c(c(C)nn3-c3ccccc3)c(-c3ccccc3Br)c12,> 100,> 100,> 100,> 100,> 100,> 100,> 100,> 100,> 100,> 100,> 100,> 100,> 100
Cc1ccc(S(=O)(=O)Oc2coc(CO)cc2=O)cc1,30,38.2,32.3,23.7,> 50,14.9,31.9,25.8,34.5,27,30.4,15,44.8
COc1c(C(CC(C)C)OC(C)=O)ccc2c1C(=O)OCc1cc(C)cc(O)c1O2 (configuration not stated),23.6,23.2,27.1,28.1,33.1,27.8,22.3,29.9,30.4,25.4,32.2,25.1,27.9
